# Source: patent US7112676B2, “Pyrimido compounds having antiproliferative activity” (Hoffmann-La Roche Inc., priority 2002, dated 2006)
# Biological target: T1, FGFR
# T1 construct: fused on or other part: GST tag
# Assay: FGFR kinase HTRF assay
# Type: biochemical
# Conditions: 10 μM ATP, read-out: IC50 (μM) - Enzyme Inhibition Assays FGFR
# Method: To determine inhibition of KDR, FGFR, EGFR, and PDGFR activity, kinase assays were conducted using an HTRF (Homogeneous Time Resolved Fluorescence) assay. This assay is described in A. J. Kolb et. al., Drug Discovery Today, 1998, 3(7), p 333.
# Kinase activity assays were performed in 96-well polypropylene plates (Falcon) with a total volume of 90 μL in each well. Each well contained 1 μM KDR substrate (Biotin-EEEEYFELVAKKKK), 1 nM activated KDR, and a test compound with one of 8 assay concentrations ranging from 100 μM to […] (1:5 serial dilution). The kinase activity assay was done in the presence of 100 mM HEPES, pH 7.4, 1 mM DTT, 0.1 mM Na2VO4, 25 mM MgCl2, 50 mM NaCl (from KDR stock solution), 1% DMSO (from compound), 0.3 mM ATP (at Km concentration) and 0.02% BSA. The reaction was incubated at 37° C. for 30 minutes. To stop the KDR reaction, 72 μL of reaction mixture was transferred into a STOP plate containing 18 μL of revelation buffer (20 mM EDTA, 50 mM HEPES, pH 7.4, 0.02% BSA, 10 nM Eu-labelled anti-pY antibody (final conc. 2 nM), and 100 nM streptavidin (final conc. 20 nM)). After mixing, 35 μL of solution was transferred into duplicate wells of a 384-well black plate (Costar), and read at 615/665 nm on a Wallac Victor 5 reader.
# FGFR, EGFR, and PDGFR activity assays were carried out as described above for the KDR activity assay with the following differences. GST-tagged FGFR enzyme was activated at room temperature for 1 hour in the following activation buffer: 100 mM HEPES, pH 7.4, 50 mM NaCl, 20 mM MgCl2, and 4 mM ATP. The kinase activity assay was performed with 1 μM substrate (Biotin-EEEEYFELV), 1.5 nM activated FGFR, and test compound in the presence of 100 mM HEPES, 1 mM DTT, 0.4 mM MgCl2, 0.4 mM MnCl2, 50 mM NaCl, 1% DMSO, 10 μM ATP (Km=8.5 μM for FGFR), 0.1 mM Na2VO4, and 0.02% BSA, in a total volume of 90 μL. The rest of the assay was performed in the same manner as KDR assay.
# Compound IC50 values were determined from duplicate sets of data, and calculated by using Excel and fitting data to equation Y=[(a−b)/{1+(X/c)^d]+b, where a and b are enzyme activity in the presence of no test inhibitor compound and an infinite amount of inhibitor test compound, respectively, c is the IC50 and d is the hill constant of the compound response. The IC50 value is the concentration of test compound that reduces by 50% the enzyme activity under the test conditions described.
row,Structure (SMILES),IC50 [µM]
1,"COc1ccc(N2C(=O)N(c3cccc(C#N)c3)c3nc(Nc4ccccc4)ncc3C2C)c(F)c1 (racemic) [Example 9b, (±)-3-[3-(2-Fluoro-4-methoxy-phenyl)-4-methyl-2-oxo-7-phenylamino-3,4-dihydro-2H-pyrimido[4,5-d]pyrimidin-1-yl]-benzonitrile]",< 10
2,"COc1ccc(N2C(=O)N(c3cccc(C(N)=O)c3)c3nc(Nc4ccccc4)ncc3C2C)c(F)c1 (racemic) [Example 10, (±)-3-[3-(2-Fluoro-4-methoxy-phenyl)-4-methyl-2-oxo-7-phenylamino-3,4-dihydro-2H-pyrimido[4,5-d]pyrimidin-1-yl]-benzamide]",< 10
3,"COc1ccc(N2C(=O)N(c3ccccc3)c3nc(Nc4ccccc4)ncc3[C@@H]2C)cc1 (single isomer, unassigned) [Example 3]",< 10
4,"COc1ccc(N2C(=O)N([C@H](C)CO)c3nc(Nc4ccccc4)ncc3[C@@H]2C)cc1 [Example 15b, 1-(2-Hydroxy-1-(R)-methyl-ethyl)-3-(4-methoxy-phenyl)-4-(S)-methyl-7-phenylamino-3,4-dihydro-1H-pyrimido[4,5-d]pyrimidin-2-one]",< 10

# More lines, now with the values ahead:
row,IC50 [µM],Structure (SMILES)
1,< 10,"COc1ccc(N2C(=O)N(c3ccccc3)c3nc(Nc4ccccc4)ncc3C2C)cc1 (racemic) [Example 1g, (±)-3-(4-Methoxy-phenyl)-4-methyl-1-phenyl-7-phenylamino-3,4-dihydro-1H-pyrimido[4,5-d]pyrimidin-2-one]"
2,< 10,"COc1ccc(N2C(=O)N(c3ccc(OC)cc3)C(C)c3cnc(Nc4ccccc4)nc32)cc1 (racemic) [Example 4b, (±)-1,3-Bis-(4-methoxy-phenyl)-4-methyl-7-phenylamino-3,4-dihydro-1H-pyrimido[4,5-d]pyrimidin-2-one]"
3,< 10,"COc1ccc(N2C(=O)N(c3cccc(C#N)c3)c3nc(Nc4ccccc4)ncc3C2C)cc1 (racemic) [Example 5b, (±)-3-[3-(4-Methoxy-phenyl)-4-methyl-2-oxo-7-phenylamino-3,4-dihydro-2H-pyrimido[4,5-d]pyrimidin-1-yl]-benzonitrile]"
4,< 10,"COc1ccc(N2C(=O)N(c3cccc(C(N)=O)c3)c3nc(Nc4ccccc4)ncc3C2C)cc1 (racemic) [Example 6, (±)-3-[3-(4-Methoxy-phenyl)-4-methyl-2-oxo-7-phenylamino-3,4-dihydro-2H-pyrimido[4,5-d]pyrimidin-1-yl]-benzamide]"
5,< 10,"COc1ccc(N2C(=O)N(c3ccccc3)c3nc(Nc4ccccc4)ncc3C2C)c(F)c1 (racemic) [Example 8d, (±)-3-(2-Fluoro-4-methoxy-phenyl)-4-methyl-1-phenyl-7-phenylamino-3,4-dihydro-1H-pyrimido[4,5-d]pyrimidin-2-one]"
